# In patent US8557580B2, “Methods and compositions for the differentiation of stem cells” (Cellular Dynamics International, Inc., priority 2009, dated 2013):
# System: Individualized ES cells
# Assay: Attachment and survival of individualized ES cells seeded in TeSR medium with or without ROCK inhibitor
# Format: cell-based, human
# Conditions: H1152 at 1 uM, fibronectin-coated surfaces
# Method: Variations in input ES colony size and colony density can lead to substantial variability in performance of any differentiation method. Therefore, the dispersion of ES colonies into individual cells prior to initiating differentiation was investigated. Cultured populations of ES cells were dispersed or individualized with trypsin or TrypLE. Dispersed ES cells were then seeded in TeSR medium, with or without a ROCK inhibitor (H1152, 1 μM). Differentiation procedures described herein were performed with the individualized cultures.
# Furthermore, if the seeding density is too low (less than approximately 1×10^4 cells per cm^2), cells detach and lose viability even in the presence of a ROCK inhibitor. If seeded at too high a cell density (greater than 5×10^4 cells per cm^2), cells remain attached, but fail to differentiate into hematoendothelial progenitors. The optimum seeding density between these limits is dependent on the method used for cell expansion, the passage number, and the overall condition of the ES cells.
smiles,measurement,value
Cc1cncc2cccc(S(=O)(=O)N3CCCNC[C@@H]3C)c12 [H1152],attachment and survival of individualized ES cells,do not attach and survive without the addition of a survival factor
